According to PubChem BioAssay AID248 (DTP/NCI, 2004):
Several values for one entry are separate records, joined by “and”; a condition that tells them apart may be missing. Identical values can stand only once. Toxic doses and inconclusive results are not listed. Cut-off read from the data, not from the text of the source: active = T/C of 150% or more; inactive = T/C below 125%.

Tested on: L1210 leukemia ip in BDF1 mice, survival T/C
Experiment: NCI In Vivo Anticancer Drug Screen. Data for tumor model L1210 Leukemia (intraperitoneal) in B6D2F1 (BDF1) mice
Details: endpoint: mean survival time, higher = longer survival
Method in brief: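 Mice bearing the transplanted tumor received compound or vehicle. Survival of the treated group was divided by that of the vehicle-treated control group to give the ratio.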

[1] = dose: 25.0 mg/kg/injection, schedule: Q04DX003 (ip), vehicle: saline with Tween-80
[2] = dose: 50.0 mg/kg/injection, schedule: Q04DX003 (ip), vehicle: saline with Tween-80
[3] = dose: 100.0 mg/kg/injection, schedule: Q04DX003 (ip), vehicle: saline with Tween-80
[4] = dose: 100.0 mg/kg/injection, schedule: Q01DX001 (ip), vehicle: saline
[5] = dose: 200.0 mg/kg/injection, schedule: Q01DX001 (ip), vehicle: saline
[6] = dose: 400.0 mg/kg/injection, schedule: Q01DX001 (ip), vehicle: saline
[7] = dose: 100.0 mg/kg/injection, schedule: Q01DX001 (ip), vehicle: saline with Tween-80

Measured: T/C

CCCCP(=O)(CCCC)Oc1cccc([N+](=O)[O-])c1
inactive: [1] 97 % of control | [2] 96 % of control | [3] 95 % of control and 102 % of control

CCCC[As](=O)(O)CC
inactive: dose: 25.0 mg/kg/injection, schedule: Q01DX009 (ip), vehicle: saline 104 % of control

CCS(=O)(=O)C(=CN(C)C)S(=O)(=O)CC
inactive: dose: 75.0 mg/kg/injection, schedule: Q04DX003 (ip), vehicle: saline 97 % of control | dose: 150.0 mg/kg/injection, schedule: Q04DX003 (ip), vehicle: saline 97 % of control | dose: 300.0 mg/kg/injection, schedule: Q04DX003 (ip), vehicle: saline 92 % of control

CC(=O)Nc1ccc2c(c1)C(c1ccccc1)=NCC(=O)N2
inactive: [4] 103 % of control | dose: 100.0 mg/kg/injection, schedule: Q01DX Z (ip), vehicle: carboxymethylcellulose (CMC) 107 % of control | dose: 100.0 mg/kg/injection, schedule: Q01DX Z (ip), vehicle: methylcellulose (MC) 100 % of control | dose: 150.0 mg/kg/injection, schedule: Q01DX Z (ip), vehicle: carboxymethylcellulose (CMC) 112 % of control and 114 % of control | dose: 150.0 mg/kg/injection, schedule: Q01DX Z (ip), vehicle: methylcellulose (MC) 103 % of control | [5] 103 % of control | dose: 225.0 mg/kg/injection, schedule: Q01DX Z (ip), vehicle: carboxymethylcellulose (CMC) 100 % of control | dose: 225.0 mg/kg/injection, schedule: Q01DX Z (ip), vehicle: methylcellulose (MC) 107 % of control | dose: 337.0 mg/kg/injection, schedule: Q01DX Z (ip), vehicle: carboxymethylcellulose (CMC) 97 % of control | dose: 337.0 mg/kg/injection, schedule: Q01DX Z (ip), vehicle: methylcellulose (MC) 109 % of control | [6] 91 % of control | dose: 600.0 mg/kg/injection, schedule: Q01DX001 (ip), vehicle: saline 98 % of control | dose: 1200.0 mg/kg/injection, schedule: Q01DX001 (ip), vehicle: saline 120 % of control | dose: 2400.0 mg/kg/injection, schedule: Q01DX001 (ip), vehicle: saline 120 % of control

NS(=O)(=O)c1ccc(N/N=c2\c(=O)c(=O)c3ccccc3c2=O)cc1
inactive: dose: 100.0 mg/kg/injection, schedule: Q01DX001 (ip), vehicle: other 101 % of control | dose: 100.0 mg/kg/injection, schedule: Q04DX003 (ip), vehicle: other 95 % of control | dose: 200.0 mg/kg/injection, schedule: Q01DX001 (ip), vehicle: other 90 % of control | dose: 200.0 mg/kg/injection, schedule: Q04DX003 (ip), vehicle: other 108 % of control | dose: 400.0 mg/kg/injection, schedule: Q01DX001 (ip), vehicle: other 93 % of control | dose: 400.0 mg/kg/injection, schedule: Q04DX003 (ip), vehicle: other 90 % of control

N#C/C(=C1/N=C(N)NC1=O)c1ccc(Cl)cc1
inactive: dose: 25.0 mg/kg/injection, schedule: Q01DX001 (ip), vehicle: saline with Tween-80 92 % of control | dose: 50.0 mg/kg/injection, schedule: Q01DX001 (ip), vehicle: saline with Tween-80 89 % of control | [7] 94 % of control

CC(=O)Oc1cc(OC(C)=O)c(Oc2cc(OC(C)=O)c(OC(C)=O)c(OC(C)=O)c2)c(OC(C)=O)c1
inactive: [3] 97 % of control | dose: 200.0 mg/kg/injection, schedule: Q04DX003 (ip), vehicle: saline with Tween-80 95 % of control | dose: 400.0 mg/kg/injection, schedule: Q04DX003 (ip), vehicle: saline with Tween-80 90 % of control

CSc1ccc(NC(=O)Oc2ccccc2C(=O)OCc2ccccc2)cc1
inactive: dose: 100.0 mg/kg/injection, schedule: Q01DX009 (ip), vehicle: gum acacia 95 % of control | dose: 200.0 mg/kg/injection, schedule: Q01DX009 (ip), vehicle: gum acacia 100 % of control | dose: 400.0 mg/kg/injection, schedule: Q01DX009 (ip), vehicle: gum acacia 102 % of control

NCc1ccccn1
inactive: [4] 98 % of control | [6] 95 % of control

NCCCC(=O)NCCCCCCCCCCNC(=O)CCCN
inactive: dose: 3.0 mg/kg/injection, schedule: Q01DX012 (ip), vehicle: saline 105 % of control | dose: 10.0 mg/kg/injection, schedule: Q01DX012 (ip), vehicle: saline 108 % of control | dose: 30.0 mg/kg/injection, schedule: Q01DX012 (ip), vehicle: saline 103 % of control

CCOP(=O)(OCC)C1=C(P(=O)(OCC)OCC)CCCC1
inactive: dose: 9.5 mg/kg/injection, schedule: Q01DX001 (ip), vehicle: other 103 % of control | dose: 19.0 mg/kg/injection, schedule: Q01DX001 (ip), vehicle: other 105 % of control | dose: 38.0 mg/kg/injection, schedule: Q01DX001 (ip), vehicle: other 95 % of control

NCCSSSSCCN
inactive: [4] 96 % of control | [5] 105 % of control

CCOC(=O)C1(C(C)C)OC2(O)C3CCCN3CC(C(C)C)N2C1=O (stereo not given)
inactive: dose: 6.25 mg/kg/injection, schedule: Q01DX009 (ip), vehicle: saline with Tween-80 100 % of control | dose: 12.5 mg/kg/injection, schedule: Q01DX009 (ip), vehicle: saline with Tween-80 113 % of control | dose: 25.0 mg/kg/injection, schedule: Q01DX009 (ip), vehicle: saline with Tween-80 100 % of control | [1] 94 % of control | dose: 50.0 mg/kg/injection, schedule: Q01DX009 (ip), vehicle: saline with Tween-80 103 % of control | [2] 103 % of control | dose: 100.0 mg/kg/injection, schedule: Q01DX009 (ip), vehicle: saline with Tween-80 96 % of control | [3] 94 % of control

O=C(NO)c1cccnc1
inactive: dose: 100.0 mg/kg/injection, schedule: Q01DX009 (ip), vehicle: Klucel (hydroxypropylcellulose) (HPC) 97 % of control | dose: 200.0 mg/kg/injection, schedule: Q01DX009 (ip), vehicle: Klucel (hydroxypropylcellulose) (HPC) 102 % of control | dose: 270.0 mg/kg/injection, schedule: Q01DX009 (ip), vehicle: acetone 102 % of control | dose: 270.0 mg/kg/injection, schedule: Q01DX015 (ip), vehicle: water 121 % of control | dose: 400.0 mg/kg/injection, schedule: Q01DX001 (ip), vehicle: water 99 % of control | dose: 400.0 mg/kg/injection, schedule: Q01DX009 (ip), vehicle: Klucel (hydroxypropylcellulose) (HPC) 101 % of control | dose: 400.0 mg/kg/injection, schedule: Q01DX009 (ip), vehicle: acetone 109 % of control | dose: 600.0 mg/kg/injection, schedule: Q01DX001 (ip), vehicle: water 106 % of control | dose: 600.0 mg/kg/injection, schedule: Q01DX009 (ip), vehicle: acetone 100 % of control | dose: 800.0 mg/kg/injection, schedule: Q01DX001 (ip), vehicle: water 99 % of control | dose: 800.0 mg/kg/injection, schedule: Q01DX009 (ip), vehicle: Klucel (hydroxypropylcellulose) (HPC) 109 % of control | dose: 800.0 mg/kg/injection, schedule: Q01DX009 (ip), vehicle: acetone 103 % of control | dose: 800.0 mg/kg/injection, schedule: Q01DX015 (ip), vehicle: water 110 % of control and 117 % of control

COC(=O)c1ccc2c(c1)OCO2
inactive: [7] 100 % of control | dose: 100.0 mg/kg/injection, schedule: Q01DX009 (ip), vehicle: saline sonified 94 % of control | dose: 200.0 mg/kg/injection, schedule: Q01DX001 (ip), vehicle: saline with Tween-80 103 % of control | dose: 200.0 mg/kg/injection, schedule: Q01DX009 (ip), vehicle: saline sonified 100 % of control | dose: 400.0 mg/kg/injection, schedule: Q01DX001 (ip), vehicle: saline with Tween-80 95 % of control | dose: 400.0 mg/kg/injection, schedule: Q01DX009 (ip), vehicle: saline sonified 102 % of control

Cc1ccc(Cl)cc1NC(=O)NCCCl
inactive: dose: 100.0 mg/kg/injection, schedule: Q04DX003 (ip), vehicle: Klucel (hydroxypropylcellulose) (HPC) 113 % of control | dose: 200.0 mg/kg/injection, schedule: Q04DX003 (ip), vehicle: Klucel (hydroxypropylcellulose) (HPC) 93 % of control
